“Also recorded” adds a separate entry of the source.
Key:
Assay type in all cases: physicochemical
[1] = Evaluation of molar absorption coefficient (UV-vis); details: for Molar absorption coefficient: deionized water, UV-vis spectrometer; for absorption coefficient relative to HNB: times higher than that of HNB
Method: HNB and 9 types of candidate substances were dissolved in deionized water to prepare 100 μg/ml of a stock and then diluted with deionized water to prepare samples of 50, 25 and 12.5 μg/ml. Next, an absorption spectrum was obtained using an analyzer UV-vis spectrometer (Agilent 8453), and then absorption coefficient values at a concentration of […] were measured and shown in Table 1 below.

Solubility test in water = details: 10 mg dissolved in 1 ml of deionized water
Method: The solubility in water was measured to confirm the solubility of the synthesized candidate compounds. Specifically, 10 mg of hydroxynaphthalene blue (HNB), which is a compound known to be developed by magnesium ions as a control, and 10 mg of each of the candidate compounds were dissolved in 1 ml of deionized water, and then the solubility was confirmed.
Various color developing dyes represented by Chemical Formula 1 above were dissolved in distilled water (D.W) and the solubility was tested to select a compound having high solubility. The selected compound was diluted at each concentration (100 uM, 50 uM, 25 uM, 12.5 uM, 6.25 uM, and 3.13 uM) and the reaction sensitivity with magnesium (magnesium concentration of 100 mM, 10 mM) by concentration was tested.

[2] = Evaluation of magnesium ion detection characteristics and pH stability (color development, 96 well plate); details: sodium phosphate buffer pH 4, 7, 9, 11; specimen 120 μM
Method: 200 mM of a magnesium chloride solution was prepared by dissolving 0.9521 g of magnesium chloride in 50 ml of deionized water.
59.99 mg of sodium phosphate monobasic and 70.98 mg of sodium phosphate dibasic were dissolved in 50 ml of distilled water to prepare 10 mM of a sodium phosphate buffer solution, and then 28.85 ml of a sodium phosphate monobasic solution and 21.15 ml of a sodium phosphate dibasic solution were mixed to prepare a sodium phosphate buffer solution at pH 7. In a similar manner, the two solutions were mixed to prepare sodium phosphate buffer solutions having acidity of pH 4, pH 7, pH 9, and pH 11, respectively.
For determination of color development, the HNB and the candidate substance were prepared at concentrations of 240 μM and used for the test.
Hydroxynaphthalene blue (HNB) and 9 types of water-soluble candidate substances selected by the solubility test were diluted with distilled water to prepare specimens at concentrations of 240 μM, respectively.
It was confirmed whether the candidate substances according to the present invention reacted with magnesium ions to be color-developed (discolored). In addition, pH stability was confirmed according to whether the candidate substances were specifically color-developed by reacting only with magnesium ions regardless of a pH change.
The color development of the control (HNB) and […] of candidate substances was confirmed under conditions of blank, a MgCl2 solution, pH 4, pH 7, pH 9, and pH 11 using a 96 well plate (12×6 holes). Specifically, 100 μl of deionized water (blank) was added in a first row of the plate, 100 μl of the MgCl2 solution was added in a second row thereof, and 100 μl of each of solutions at pH 4, pH 7, pH 9, and pH 11 was added in third to sixth rows thereof using 10 mM of the sodium phosphate buffer solution prepared in step a) above. In columns of the plate, 100 μl of specimens prepared at a concentration of 240 μM were added to 6 rows, respectively, and a total of 36 specimens were screened. […]

[3] = Evaluation of magnesium ion sensitivity at concentration of less than 10 mM
Method: Magnesium chloride was dissolved in deionized water and diluted to 8, 10, 12, 14 and 16 mM, respectively, to prepare specimens. Next, as the dye compounds, the HNB and the compound of Chemical Formula 2 were prepared at a concentration of 240 μM, but the compounds of Chemical Formulas 3 and 4 were prepared to be diluted at a concentration of 120 μM by 50% because the molar absorption coefficient of the compounds was two times higher than that of the control (HNB).
In each row of a 96-well plate, […] of the dye compound was filled, and in each column, […] of a diluted magnesium chloride solution was filled, and then the color changes were observed and absorbance was measured. The final concentrations of magnesium chloride in the 96-well plate were 0, 4, 5, 6, 7, and 8 mM, and the final concentrations of HNB and Chemical Formula 2 were 120 μM, respectively, and the final concentrations of Chemical Formulas 3 and 4 were 60 μM, respectively.

Compound	Molar absorption coefficient [1]	pH stability (color development with pH change in the absence of magnesium ions) [2]	other results
O=[N+]([O-])c1cc(N=Nc2c(S(=O)(=O)O)cc3cc(Nc4ccccc4)ccc3c2O)c(O)c(S(=O)(=O)O)c1 [Chemical Formula 7]	25,000		
O=[N+]([O-])c1cc(S(=O)(=O)O)cc(N=Nc2cc(S(=O)(=O)[O-])c3ccccc3c2O)c1O.[Na+] [Chemical Formula 9]	23,000		
O=[N+]([O-])c1cc(N=Nc2c(O)ccc3ccccc23)c(O)c([N+](=O)[O-])c1 [Chemical Formula 8]	5,117		
hydroxynaphthalene blue [HNB, reference compound]	13,000		solubility in water (Solubility test in water): dissolved in water
CC1=NN(c2ccccc2)C(O)C1N=Nc1cc([N+](=O)[O-])cc(S(=O)(=O)O)c1O (centres unmarked) [Chemical Formula 5]	33,579		
O=[N+]([O-])c1cc(N=Nc2c(S(=O)(=O)O)cc3cc(Nc4ccccc4)ccc3c2O)c(O)c([N+](=O)[O-])c1 [Chemical Formula 4]	31,000	excellent; also recorded: without being influenced by the pH change	absorption coefficient relative to HNB [1]: 2.38 times
O=[N+]([O-])c1ccc(O)c(N=Nc2cc(S(=O)(=O)O)c3ccccc3c2O)c1 [Chemical Formula 2]	12,000	developed to a color clearly different from that in the presence of magnesium ions under neutral to basic conditions	
Nc1ccc2c(O)c(N=Nc3ccc([N+](=O)[O-])cc3O)c(S(=O)(=O)O)cc2c1 [Chemical Formula 3]	44,000	excellent; also recorded: without being influenced by the pH change	absorption spectrum position after shift by magnesium ions ([3]; with magnesium ions): 640 nm; absorption spectrum position before shift by magnesium ions ([3]; without magnesium ions): 500 nm; absorption coefficient relative to HNB [1]: 3.38 times
O=[N+]([O-])c1cc(N=Nc2c(O)cccc2O)c(O)c(S(=O)(=O)O)c1 [Chemical Formula 6]	18,000		
